Test results: PMC7893776, “Selecting an anti-malarial clinical candidate from two potent dihydroisoquinolones” (Malaria Journal, 2021)
Where two headings read alike, the source gives them in different places.

How the values were obtained:
[1] = Microsomal stability, human; type: in vitro ADME; details: for CLint in vivo: scaled up using PBSF
Description: The metabolic stability assay was performed by incubating compounds individually (0.8, 4, or 20 µM) with mouse, rat, dog and human liver microsomes (Fisher, 0.5 mg/mL protein concentration) at 37 °C. The metabolic reaction was initiated by the addition of a NADPH-regenerating system and quenched at various time points by the addition of acetonitrile according to a published method.
The remaining concentration of each compound was measured as a ratio of peak area to the internal standard. The log peak area ratio was plotted vs. time (h), and the slope was determined to calculate the elimination rate constant [k = (− 2.303) * slope]. If deviation from first order kinetics was evident, only the initial linear portion of the plot was used to determine the rate constate, k. The half-life (h) was calculated as t1/2 = 0.693/k. Intrinsic clearance in vitro was calculated as CLintin vitro = (1000)*(0.693/t1/2*60)/0.5, where microsomal concentration in the reaction solution was 0.5 mg/mL; 1000 and 60 are scaling factors for volume (µL) and time (min), respectively. The intrinsic in vitro clearance was scaled to the intrinsic in vivo clearance using physiology based scaling factor (PBSF): CLint in vivo= CLint in vitro *PBSF: (microsome protein/gram liver) * (gram liver/kg b.w.), with PBSF: 47 (mouse), 47(rat), 58 (dog), 32 (human); and liver weight proportions: 54.9 (mouse), 36.6 (rat), 32.9 (dog) 25.7 (human).

[2] = LogD octanol/pH 7.4 buffer shake flask; type: physicochemical
Description: Octanol/pH 7.4 buffer partitioning experiments were conducted using a shake flask method, and pKa was assessed by potentiometric titration. Both methods have been described previously.

[3] = Mouse plasma pharmacokinetics, single PO or IV dose; type: in vivo, female C57BL/6 mice; details: for AUCinf / CL / Cmax / Half-life / Vss / CL/F / Tmax / V/F: mouse plasma; for bioavailability: po, read-out: Mouse F (oral bioavailability)
Text: Studies were undertaken to determine the plasma pharmacokinetics of SJ733 and SJ311. These studies included: (i) single oral gavage (PO) or intravenous (IV) dose administration to female C57BL/6 mice; (ii) single PO or IV dose administration to male Sprague Dawley (SD) rats; (iii) single PO or IV dose administration to male beagle dogs; (iv) toxicokinetic (TK) study following single PO administration to male SD rats. The PO and IV formulation used for mouse studies at SJCRH was 1% hydroxypropyl-beta-cyclodextrin (w/v), 10% ethanol (v/v), 10% propylene glycol (v/v), 40% PEG-400 (v/v) and 39% PBS (pH 7.4) isotonic (v/v). Compounds were dosed orally as suspensions, and intravenously as filtered solutions. Compound concentrations were confirmed post filtration using UV spectroscopy. The IV formulation used for rat studies (Monash University) was the same as that used for mice. For PO dosing to rats (Monash University) at 2 mg/kg, a suspension formulation was used containing 0.5% (w/v) hydroxypropyl methylcellulose, 0.5% (v/v) benzyl alcohol and 0.4% (v/v) Tween 80. The formulation used for rat studies at SRI (PO, high dose) was the same as that used in mouse PK studies. The formulation for the high dose TK study at SRI was 0.5% methylcellulose in sterile water. The formulation used for dog studies was the same as that used in mouse PK studies. The PO and IV PK of SJ733 and SJ311 were studied in female C57BL/6 mice. Mice had access to water and food ad libitum throughout the pre- and post-dose sampling period. Doses were administered at 15 mg/kg for IV and 10–200 mg/kg for PO with 20 mice in each dosage group. Two samples were taken from each mouse, with the first sample being a retro-orbital bleed (~ 200 µL) at the indicated time point (5, 15, 30 min, 1, 4, 24 h) and the second being terminal cardiac puncture (~ 500 µL) at the indicated time point (usually 48 h). EDTA disodium was used as anticoagulant and added to whole blood (10% volume of EDTA for 1% w/v final concentration) followed by centrifugation at 13,000 rpm for 2 min. Plasma was collected and stored frozen at -20 °C until analysis. For studies at SJCRH, all blood samples were kept on wet ice after collection and processed to plasma within 30 min of collection. Plasma samples were kept on dry ice and transferred to ≤ − 20 °C until analysis. Mouse plasma samples were extracted via protein precipitation with cold acetonitrile. The detection of the SJ733, SJ311, and warfarin (IS) was conducted by LC–MS with SIR or LC–MS/MS with MRM detection. Aliquots (3 µL) were injected onto a Waters Acquity UPLC equipped with an ABI Sciex 6500 Qtrap MS/MS and separated using an Acquity BEH C18 column (50 × 2.1 mm, 1.7 µm) with a methanol–water gradient containing 0.1% formic acid. Plasma concentration time (Ct) data for SJ733 and SJ311 were grouped by nominal time point, and the mean Ct values were subjected to noncompartmental analysis (NCA) using Phoenix WinNonlin 8.1 (Certara USA, Inc., Princeton, NJ). For all experiments, the area under the Ct and first moment curves (AUC, AUMC) were estimated using the “linear up log down” method. The terminal phase was defined as at least three time points at the end of the Ct profile, and the elimination rate constant (Kel) was estimated using an unweighted log-linear regression of the terminal phase. The terminal elimination half-life (T1/2) was estimated as 0.693/Kel, and the AUC from time 0 to infinity ([…]) was estimated as the AUC to the last time point (AUClast) + Clast (predicted)/Kel with the […] similarly calculated. Additional parameters estimated included observed maximum concentration (Cmax), time of Cmax (Tmax), concentration at the last observed time point (Clast), time of Clast (Tlast), and the apparent oral terminal volume of distribution (V/F). The apparent oral clearance (CL/F), systemic clearance (CL) and volume of distribution at steady state (Vss) were all estimated using standard formulae [19].

[4] = human microsomes, 20, 4, 0.8 µM
[5] = mouse, single PO 100 mg/kg vs IV
[6] = human microsomes, 0.8 µM, independent replicate to Table 4
[7] = human microsomes, 4 µM, independent replicate to Table 4
[8] = human microsomes, 20 µM, independent replicate to Table 4
[9] = female, C57BL/6, mouse, plasma, mouse, summary over the oral doses studied
[10] = female, C57BL/6, single IV 15 mg/kg, read-out: Half-life

bioavailability [3, 9] [%] | Half-life [3, 10] [h] | Compound | LogD (7.4) Shake flask [2] | AUCinf ([3]; single IV 15 mg/kg) [µM·h] | CL ([3]; single IV 15 mg/kg) [mL/min/kg] | Cmax ([3]; single IV 15 mg/kg) [µM] | Half-life ([3]; single IV 15 mg/kg) [h] | Vss ([3]; single IV 15 mg/kg) [L/kg] | AUCinf ([3]; single PO 100 mg/kg) [µM·h] | CL/F ([3]; single PO 100 mg/kg) [mL/min/kg] | Cmax ([3]; single PO 100 mg/kg) [µM] | Half-life ([3]; single PO 100 mg/kg) [h] | Tmax ([3]; single PO 100 mg/kg) [h] | F [3, 5] [%] | CLint in vitro [1, 6] [µl/min/mg protein] | CLint in vivo ([1]; human microsomes, 0.8 µM) [mL/min/kg] | CLint in vitro [1, 7] [µl/min/mg protein] | CLint in vivo ([1]; human microsomes, 4 µM) [mL/min/kg] | CLint in vitro [1, 8] [µl/min/mg protein] | CLint in vivo ([1]; human microsomes, 20 µM) [mL/min/kg] | also measured
– | – | N#Cc1cc(NC(=O)C2c3ccccc3C(=O)N(CC(F)(F)F)C2c2cn[nH]c2)ccc1F (racemic) [(r)-SJ311] | 2.34 | 20.7 | 27.2 | 13.4 | 1.56 | 2.11 | 42 | 89 | 10.5 ± 5.3 | 4.20 | 0.5 | 23.1 | – | – | – | – | – | – | CLint in vitro [1, 4]: <7 µl/min/mg protein; CLint in vivo [1, 4]: <5.2 mL/min/kg; V/F ([3]; single PO 100 mg/kg): 32.4 L/kg
– | – | N#Cc1cc(NC(=O)C2c3ccccc3C(=O)N(CC(F)(F)F)C2c2cccnc2)ccc1F (racemic) [(r)-SJ733] | – | 10.8 | 49.7 | 11.3 | 1.52 | 2.41 | – | – | – | – | – | – | 12.7 ± 0.3 | 11.5 ± 0.3 | 11.5 ± 0.3 | 10.3 ± 1.2 | <7 | <5.2 | AUCinf ([3]; single PO 50 mg/kg): 28 µM·h; CL/F ([3]; single PO 50 mg/kg): 67 mL/min/kg; Cmax ([3]; single PO 50 mg/kg): 10.1 ± 4.5 µM; Half-life ([3]; single PO 50 mg/kg): 1.72 h; Tmax ([3]; single PO 50 mg/kg): 0.5 h; AUCinf ([3]; single PO 200 mg/kg): 155.7 µM·h; CL/F ([3]; single PO 200 mg/kg): 54.2 mL/min/kg; Cmax ([3]; single PO 200 mg/kg): 12.7 ± 3.2 µM; Half-life ([3]; single PO 200 mg/kg): 14.1 h; Tmax ([3]; single PO 200 mg/kg): 5 h; V/F ([3]; single PO 200 mg/kg): 3.23 L/kg; F ([3]; mouse, single PO 50 mg/kg vs IV): 70%; F ([3]; mouse, single PO 200 mg/kg vs IV): 98%
65 to 81 | 1.38 to 1.65 | N#Cc1cc(NC(=O)[C@H]2c3ccccc3C(=O)N(CC(F)(F)F)[C@@H]2c2cccnc2)ccc1F (racemic) [SJ733] | – | – | – | – | – | – | – | – | – | – | – | – | – | – | – | – | – | – | clearance ([3]; female, C57BL/6, mouse, plasma, observed in mice, read-out: in vivo clearance (converted)): ~50 mL/min/kg
– | – | N#Cc1cc(NC(=O)[C@H]2c3ccccc3C(=O)N(CC(F)(F)F)[C@@H]2c2cn[nH]c2)ccc1F [(+)-SJ311] | 2.30 | – | – | – | – | – | – | – | – | – | – | – | – | – | – | – | – | – | CLint ([1]; human microsomes, 0.8 µM): < 7 µl/min/mg protein; t1/2 ([1]; human microsomes, 0.8 µM): > 4 h
– | – | N#Cc1cc(NC(=O)[C@H]2c3ccccc3C(=O)N(CC(F)(F)F)[C@@H]2c2cccnc2)ccc1F [(+)-SJ733] | – | – | – | – | – | – | 53 | 67 | 11.7 ± 1.2 | 3.17 | 0.5 | 80.8 | 42.6 ± 0.7 | 38.4 ± 0.7 | 34.5 ± 0.6 | 31.0 ± 0.5 | 20.6 ± 0.5 | 18.5 ± 0.4 | CLint ([1]; human microsomes, 0.8 µM): 45.5 ± 4.0 µl/min/mg protein; t1/2 ([1]; human microsomes, 0.8 µM): 0.5 ± 0.1 h; AUCinf ([3]; single PO 10 mg/kg): 4.27 µM·h; CL/F ([3]; single PO 10 mg/kg): 83.3 mL/min/kg; Cmax ([3]; single PO 10 mg/kg): 1.38 ± 0.21 µM; Half-life ([3]; single PO 10 mg/kg): 3.63 h; Tmax ([3]; single PO 10 mg/kg): 0.5 h; V/F ([3]; single PO 10 mg/kg): 26.2 L/kg; F ([3]; mouse, single PO 10 mg/kg vs IV): 65%
22 to 23 | 1.38 to 1.56 | N#Cc1cc(NC(=O)[C@H]2c3ccccc3C(=O)N(CC(F)(F)F)[C@@H]2c2cn[nH]c2)ccc1F [SJ311] | – | – | – | – | – | – | – | – | – | – | – | – | – | – | – | – | – | – | logD ([2]; pH 7.4): 2.3; Mouse F (oral bioavailability) ([3]; mouse, summary over the oral doses studied): 23%
